# In ChEMBL document CHEMBL1201861, “Genomics of Drug Sensitity in Cancer screening data, Wellcome Trust Sanger Institute”:
# “And” between values parts separate entries of the source, which are not always exact repeats. Identical values can stand only once.
# Tests used:
# Test in all cases: cells
# NB14 = type: functional, cell-based; conditions: Homo sapiens;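 note: growth inhibition of NB14 cells measured with a cell viability assay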
# Description: SANGER: Inhibition of human NB14 cell growth in a cell viability assay.
# A253 cell line = type: functional, cell-based, Homo sapiens;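 note: growth inhibition of A253 cells, read out with a cell viability assay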
# Description: SANGER: Inhibition of human A253 cell growth in a cell viability assay.
# ML-2 = type: functional, cell-based; conditions: Homo sapiens;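 note: growth inhibition of ML-2 cells, measured with a cell viability readout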
# Description: SANGER: Inhibition of human ML-2 cell growth in a cell viability assay.
# IGROV-1 = type: functional, cell-based, Homo sapiens;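 note: reduction of IGROV-1 cell growth, read out with a viability assay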
# Description: SANGER: Inhibition of human IGROV-1 cell growth in a cell viability assay.
# OAW-42 = type: functional, cell-based, Homo sapiens;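 note: growth inhibition of OAW-42 cells, read out with a cell viability assay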
# Description: SANGER: Inhibition of human OAW-42 cell growth in a cell viability assay.
# 647-V = type: functional, cell-based, Homo sapiens;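 note: growth inhibition of 647-V cells, read out with a cell viability assay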
# Description: SANGER: Inhibition of human 647-V cell growth in a cell viability assay.
# HSC-2 = type: functional, cell-based, Homo sapiens;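 note: growth inhibition of human HSC-2 cells, read out by a cell viability assay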
# Description: SANGER: Inhibition of human HSC-2 cell growth in a cell viability assay.
# LB373-MEL-D = type: functional, cell-based, Homo sapiens;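 note: growth inhibition of the cell line, read out in a cell viability assay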
# Description: SANGER: Inhibition of human LB373-MEL-D cell growth in a cell viability assay.
# HOS = type: functional, cell-based, Homo sapiens;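 note: growth inhibition of human HOS cells, read out with a cell viability assay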
# Description: SANGER: Inhibition of human HOS cell growth in a cell viability assay.
# NCI-H441 = type: functional, cell-based; conditions: Homo sapiens;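 note: growth inhibition of NCI-H441 cells, read out with a cell viability assay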
# Description: SANGER: Inhibition of human NCI-H441 cell growth in a cell viability assay.
# GCIY = type: functional, cell-based, Homo sapiens;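 note: growth inhibition of the human GCIY cell line, read out by a cell viability assay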
# Description: SANGER: Inhibition of human GCIY cell growth in a cell viability assay.
# ASPC1 = type: functional, cell-based, Homo sapiens;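 note: growth inhibition of AsPC-1 cells, read out with a cell viability assay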
# Description: SANGER: Inhibition of human AsPC-1 cell growth in a cell viability assay.
# NCI-H2405 = type: functional, cell-based, Homo sapiens;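 note: growth inhibition of the human cell line, read out with a cell viability assay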
# Description: SANGER: Inhibition of human NCI-H2405 cell growth in a cell viability assay.
# YKG-1 = type: functional, cell-based, Homo sapiens;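 note: cell growth inhibition, read out with a viability assay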
# Description: SANGER: Inhibition of human YKG-1 cell growth in a cell viability assay.
# A704 = type: functional, cell-based, Homo sapiens;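 note: growth inhibition of human A704 cells, read out with a cell viability assay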
# Description: SANGER: Inhibition of human A704 cell growth in a cell viability assay.
# CAL-12T = type: functional, cell-based, Homo sapiens;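 note: growth inhibition of human CAL-12T cells, read out with a cell viability assay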
# Description: SANGER: Inhibition of human CAL-12T cell growth in a cell viability assay.
# NCI-H1648 = type: functional, cell-based, Homo sapiens;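 note: cell viability assay measuring inhibition of NCI-H1648 cell growth, from the Sanger screening data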
# Description: SANGER: Inhibition of human NCI-H1648 cell growth in a cell viability assay.
# NCI-H2170 = type: functional, cell-based, Homo sapiens;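 note: cell viability assay measuring growth inhibition of human NCI-H2170 cancer cells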
# Description: SANGER: Inhibition of human NCI-H2170 cell growth in a cell viability assay.
# COLO-680N = type: functional, cell-based, Homo sapiens;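 note: cell viability assay used to measure inhibition of COLO-680N cell growth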
# Description: SANGER: Inhibition of human COLO-680N cell growth in a cell viability assay.
# G-401 = type: functional, cell-based, Homo sapiens
# Description: SANGER: Inhibition of human G-401 cell growth in a cell viability assay.
# SW948 = type: functional, cell-based, Homo sapiens;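 note: growth inhibition of SW948 cells, read out with a cell viability assay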
# Description: SANGER: Inhibition of human SW948 cell growth in a cell viability assay.
# NKM-1 = type: functional, cell-based; conditions: Homo sapiens;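 note: growth inhibition of NKM-1 cells, read out with a cell viability assay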
# Description: SANGER: Inhibition of human NKM-1 cell growth in a cell viability assay.
# HCC1187 = type: functional, cell-based, Homo sapiens;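 note: growth inhibition of HCC1187 cells, read out with a cell viability assay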
# Description: SANGER: Inhibition of human HCC1187 cell growth in a cell viability assay.
# NCI-H596 = type: functional, cell-based, Homo sapiens;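 note: growth inhibition of NCI-H596 cells, read out with a cell viability assay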
# Description: SANGER: Inhibition of human NCI-H596 cell growth in a cell viability assay.
# OCUB-M = type: functional, cell-based, Homo sapiens;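 note: growth inhibition of the cancer cell line, read out through a cell viability assay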
# Description: SANGER: Inhibition of human OCUB-M cell growth in a cell viability assay.
# T98G = type: functional, cell-based, Homo sapiens;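 note: growth inhibition of T98G cells, read out by a cell viability assay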
# Description: SANGER: Inhibition of human T98G cell growth in a cell viability assay.
# NCI-H1770 = type: functional, cell-based; conditions: Homo sapiens;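 note: growth inhibition of NCI-H1770 cells determined with a viability readout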
# Description: SANGER: Inhibition of human NCI-H1770 cell growth in a cell viability assay.
# DoTc2-4510 = type: functional, cell-based, Homo sapiens
# AU565 = type: functional, cell-based, Homo sapiens;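 note: cell viability assay measuring growth inhibition of human AU565 cells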
# Description: SANGER: Inhibition of human AU565 cell growth in a cell viability assay.
# PFSK-1 = type: functional, cell-based, Homo sapiens;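 note: cell viability assay measuring how strongly compounds suppress growth of human PFSK-1 cells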
# Description: SANGER: Inhibition of human PFSK-1 cell growth in a cell viability assay.
# A673 = type: functional, cell-based, Homo sapiens;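 note: growth inhibition of human A673 cells, read out through a cell viability assay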
# Description: SANGER: Inhibition of human A673 cell growth in a cell viability assay.
# RT-112 = type: functional, cell-based, Homo sapiens
# Description: SANGER: Inhibition of human RT-112 cell growth in a cell viability assay.
# YAPC = type: functional, cell-based, Homo sapiens;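 note: growth inhibition of YAPC cells, measured with a cell viability assay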
# Description: SANGER: Inhibition of human YAPC cell growth in a cell viability assay.
# ES1 = type: functional, cell-based, Homo sapiens;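 note: growth inhibition of ES1 cells, read out with a cell viability assay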
# Description: SANGER: Inhibition of human ES1 cell growth in a cell viability assay.
# NCI-H2452 = type: functional, cell-based, Homo sapiens;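 note: growth inhibition of NCI-H2452 cells, read out with a cell viability assay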
# Description: SANGER: Inhibition of human NCI-H2452 cell growth in a cell viability assay.
# MKN-7 = type: functional, cell-based, Homo sapiens;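 note: growth inhibition of MKN-7 cells, read out with a cell viability assay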
# Description: SANGER: Inhibition of human MKN7 cell growth in a cell viability assay.
# MG-63 = type: functional, cell-based, Homo sapiens;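 note: growth inhibition of human MG-63 cells, read out with a cell viability assay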
# Description: SANGER: Inhibition of human MG-63 cell growth in a cell viability assay.
# KY821 = type: functional, cell-based; conditions: Homo sapiens;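 note: growth inhibition of human KY821 cells, read out by a cell viability assay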
# Description: SANGER: Inhibition of human KY821 cell growth in a cell viability assay.
# ES8 = type: functional, cell-based, Homo sapiens;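 note: growth inhibition of human ES8 cells, read out with a cell viability assay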
# Description: SANGER: Inhibition of human ES8 cell growth in a cell viability assay.
# NCI-H2052 = type: functional, cell-based, Homo sapiens;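 note: growth inhibition of NCI-H2052 cells, read out with a cell viability assay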
# Description: SANGER: Inhibition of human NCI-H2052 cell growth in a cell viability assay.
# HGC-27 = type: functional, cell-based, Homo sapiens;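 note: growth inhibition of human HGC-27 cells, read out in a cell viability assay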
# Description: SANGER: Inhibition of human HGC-27 cell growth in a cell viability assay.
# A498 = type: functional, cell-based, Homo sapiens;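 note: growth inhibition of human A498 cells, read out with a cell viability assay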
# Description: SANGER: Inhibition of human A498 cell growth in a cell viability assay.
# NCI-H510A = type: functional, cell-based; conditions: Homo sapiens;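 note: growth inhibition of NCI-H510A cells, read out with a cell viability assay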
# Description: SANGER: Inhibition of human NCI-H510A cell growth in a cell viability assay.
# LU-134-A = type: functional, cell-based; conditions: Homo sapiens
# Description: SANGER: Inhibition of human LU-134-A cell growth in a cell viability assay.
# HCE-4 = type: functional, cell-based, Homo sapiens;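 note: cell viability assay measuring inhibition of growth in the human HCE-4 cell line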
# Description: SANGER: Inhibition of human HCE-4 cell growth in a cell viability assay.
# 769-P = type: functional, cell-based, Homo sapiens
# Description: SANGER: Inhibition of human 769-P cell growth in a cell viability assay.
# RS4-11 = type: functional, cell-based; conditions: Homo sapiens;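 note: growth inhibition of RS4-11 cells, read out by a cell viability assay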
# Description: SANGER: Inhibition of human RS4-11 cell growth in a cell viability assay.
# NCI-H810 = type: functional, cell-based, Homo sapiens;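 note: IC50 reflects inhibition of cancer cell line growth, read out with a cell viability assay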
# Description: SANGER: Inhibition of human NCI-H810 cell growth in a cell viability assay.
# A2058 = type: functional, cell-based; conditions: Homo sapiens;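 note: reduction of A2058 cell growth, read out with a viability assay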
# Description: SANGER: Inhibition of human A2058 cell growth in a cell viability assay.
# Calu-6 = type: functional, cell-based, Homo sapiens;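 note: growth of human Calu-6 cells, read out by a cell viability assay, IC50 marking inhibition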
# Description: SANGER: Inhibition of human Calu-6 cell growth in a cell viability assay.
# J-RT3-T3-5 = type: functional, cell-based; conditions: Homo sapiens;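 note: cell viability assay measuring growth inhibition of human J-RT3-T3-5 cells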
# Description: SANGER: Inhibition of human J-RT3-T3-5 cell growth in a cell viability assay.
# LU-99A = type: functional, cell-based, Homo sapiens;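 note: growth inhibition of LU-99A cells, read out with a cell viability assay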
# Description: SANGER: Inhibition of human LU-99A cell growth in a cell viability assay.
smiles,measurement,setting,value
Cc1cc([C@@H](C)Nc2ccccc2C(=O)O)c2nc(N3CCOCC3)cc(=O)n2c1 [AZD-6482],IC50,NB14,> 5.12 µM
same,IC50,"A253 cell line; Homo sapiens, A253",> 5.12 µM
same,IC50,A253 cell line; a253,> 5.12 µM
same,IC50,ML-2,3.56 µM
same,IC50,"IGROV-1; Homo sapiens, IGROV-1",1.97 µM
same,IC50,IGROV-1; igrov-1,2.55 µM
same,IC50,OAW-42; oaw-42,> 5.12 µM
same,IC50,647-V; 647-v,> 5.12 µM
same,IC50,"HSC-2; Homo sapiens, HSC-2",1.76 µM
same,IC50,HSC-2; hsc-2,1.14 µM
same,IC50,LB373-MEL-D; lb373-mel-d,> 5.12 µM
same,IC50,HOS; hos,> 5.12 µM
same,IC50,NCI-H441,> 5.12 µM
same,IC50,GCIY; gciy,> 5.12 µM and 2.2 µM
same,IC50,ASPC1; aspc1,> 5.12 µM
same,IC50,NCI-H2405; nci-h2405,> 5.12 µM
same,IC50,"YKG-1; Homo sapiens, YKG-1",> 5.12 µM
same,IC50,YKG-1; ykg-1,> 5.12 µM
same,IC50,A704; a704,> 5.12 µM and 3.31 µM
same,IC50,CAL-12T; cal-12t,> 5.12 µM
same,IC50,"NCI-H1648; Homo sapiens, NCI-H1648",> 5.12 µM
same,IC50,NCI-H1648; nci-h1648,> 5.12 µM
same,IC50,NCI-H2170; nci-h2170,> 5.12 µM
same,IC50,COLO-680N; colo-680n,> 5.12 µM
same,IC50,G-401; g-401,4.07 µM and > 5.12 µM
same,IC50,SW948; sw948,> 5.12 µM
same,IC50,NKM-1,1.29 µM
same,IC50,"HCC1187; Homo sapiens, HCC1187",> 5.12 µM
same,IC50,HCC1187; hcc1187,> 5.12 µM
same,IC50,NCI-H596; nci-h596,> 5.12 µM
same,IC50,OCUB-M; ocub-m,1.58 µM and 0.728 µM
same,IC50,"T98G; Homo sapiens, T98G",> 5.12 µM
same,IC50,T98G; t98g,> 5.12 µM
same,IC50,NCI-H1770,> 5.12 µM
same,IC50,DoTc2-4510; dotc2-4510,> 5.12 µM
same,IC50,"AU565; Homo sapiens, AU565",> 5.12 µM
same,IC50,AU565; au565,> 5.12 µM
same,IC50,PFSK-1; pfsk-1,> 5.12 µM
same,IC50,"A673; Homo sapiens, A673",> 5.12 µM
same,IC50,A673; a673,> 5.12 µM
same,IC50,"RT-112; Homo sapiens, RT-112",> 5.12 µM
same,IC50,RT-112; rt-112,> 5.12 µM
same,IC50,YAPC; yapc,> 5.12 µM
same,IC50,ES1; es1,> 5.12 µM
same,IC50,NCI-H2452; nci-h2452,> 5.12 µM
same,IC50,MKN-7; mkn-7,> 5.12 µM
same,IC50,MG-63; mg-63,> 5.12 µM and 1.59 µM
same,IC50,KY821,> 5.12 µM
same,IC50,ES8; es8,> 5.12 µM
same,IC50,NCI-H2052; nci-h2052,> 5.12 µM and 0.915 µM
same,IC50,HGC-27; hgc-27,1.18 µM and > 5.12 µM
same,IC50,A498; a498,0.118 µM and 0.459 µM
same,IC50,NCI-H510A,> 5.12 µM
same,IC50,LU-134-A,> 5.12 µM
same,IC50,HCE-4; hce-4,> 5.12 µM
same,IC50,769-P; 769-p,> 5.12 µM
same,IC50,RS4-11,0.738 µM
same,IC50,"NCI-H810; Homo sapiens, NCI-H810",> 5.12 µM
same,IC50,NCI-H810; nci-h810,> 5.12 µM
same,IC50,A2058,> 5.12 µM
same,IC50,Calu-6; calu-6,> 5.12 µM
same,IC50,J-RT3-T3-5,> 5.12 µM
same,IC50,LU-99A; lu-99a,> 5.12 µM
O=C(NOCC1CC1)c1ccc(F)c(F)c1Nc1ccc(I)cc1Cl [CI-1040],IC50,NB14,7.67 µM
same,IC50,ML-2,1.53 µM
same,IC50,"IGROV-1; Homo sapiens, IGROV-1",4.45 µM
same,IC50,"OAW-42; Homo sapiens, OAW-42",> 10 µM
same,IC50,"647-V; Homo sapiens, 647-V",> 10 µM
same,IC50,"HSC-2; Homo sapiens, HSC-2",> 10 µM
same,IC50,"LB373-MEL-D; Homo sapiens, LB373-MEL-D",> 10 µM
same,IC50,"HOS; Homo sapiens, HOS",5.63 µM
same,IC50,NCI-H441,> 10 µM
same,IC50,"GCIY; Homo sapiens, GCIY",> 10 µM
same,IC50,"ASPC1; Homo sapiens, ASPC1",5.37 µM
same,IC50,"NCI-H2405; Homo sapiens, NCI-H2405",> 10 µM
same,IC50,"YKG-1; Homo sapiens, YKG-1",9.75 µM
same,IC50,"A704; Homo sapiens, A704",> 10 µM
same,IC50,"CAL-12T; Homo sapiens, CAL-12T",8.66 µM
same,IC50,"NCI-H1648; Homo sapiens, NCI-H1648",> 10 µM
same,IC50,"NCI-H2170; Homo sapiens, NCI-H2170",> 10 µM
same,IC50,"COLO-680N; Homo sapiens, COLO-680N",> 10 µM
same,IC50,"G-401; Homo sapiens, G-401",> 10 µM
same,IC50,"SW948; Homo sapiens, SW948",> 10 µM
same,IC50,NKM-1,> 10 µM
same,IC50,"HCC1187; Homo sapiens, HCC1187",> 10 µM
same,IC50,"NCI-H596; Homo sapiens, NCI-H596",> 10 µM
same,IC50,"OCUB-M; Homo sapiens, OCUB-M",> 10 µM
same,IC50,"T98G; Homo sapiens, T98G",9 µM
same,IC50,NCI-H1770,> 10 µM
same,IC50,"DoTc2-4510; Homo sapiens, DoTc2-4510",7.12 µM
same,IC50,"AU565; Homo sapiens, AU565",> 10 µM
same,IC50,"PFSK-1; Homo sapiens, PFSK-1",> 10 µM
same,IC50,"A673; Homo sapiens, A673",8.63 µM
same,IC50,"RT-112; Homo sapiens, RT-112",1.59 µM
same,IC50,"YAPC; Homo sapiens, YAPC",> 10 µM
same,IC50,"ES1; Homo sapiens, ES1",> 10 µM
same,IC50,"NCI-H2452; Homo sapiens, NCI-H2452",> 10 µM
same,IC50,"MKN-7; Homo sapiens, MKN-7",> 10 µM
same,IC50,"MG-63; Homo sapiens, MG-63",> 10 µM
same,IC50,KY821,0.379 µM
same,IC50,"ES8; Homo sapiens, ES8",> 10 µM
same,IC50,"NCI-H2052; Homo sapiens, NCI-H2052",> 10 µM
same,IC50,"HGC-27; Homo sapiens, HGC-27",> 10 µM
same,IC50,"A498; Homo sapiens, A498",> 10 µM
same,IC50,NCI-H510A,> 10 µM
same,IC50,LU-134-A,> 10 µM
same,IC50,"HCE-4; Homo sapiens, HCE-4",> 10 µM
same,IC50,"769-P; Homo sapiens, 769-P",> 10 µM
same,IC50,RS4-11,5.67 µM
same,IC50,"NCI-H810; Homo sapiens, NCI-H810",> 10 µM
same,IC50,A2058,2.19 µM
same,IC50,"Calu-6; Homo sapiens, Calu-6",6.8 µM
same,IC50,J-RT3-T3-5,> 10 µM
same,IC50,"LU-99A; Homo sapiens, LU-99A",5.66 µM
Nc1ccn([C@@H]2O[C@H](CO)[C@@H](O)[C@@H]2O)c(=O)n1 [CYTARABINE],IC50,NB14,0.31 µM
same,IC50,ML-2,0.27 µM
same,IC50,"IGROV-1; Homo sapiens, IGROV-1",1.79 µM
same,IC50,"OAW-42; Homo sapiens, OAW-42",1.25 µM
same,IC50,"647-V; Homo sapiens, 647-V",1.23 µM
same,IC50,"HSC-2; Homo sapiens, HSC-2",1.46 µM
same,IC50,"LB373-MEL-D; Homo sapiens, LB373-MEL-D",> 2 µM
same,IC50,"HOS; Homo sapiens, HOS",0.518 µM
same,IC50,NCI-H441,> 2 µM
same,IC50,"GCIY; Homo sapiens, GCIY",> 2 µM
same,IC50,"ASPC1; Homo sapiens, ASPC1",1.39 µM
same,IC50,"NCI-H2405; Homo sapiens, NCI-H2405",> 2 µM
same,IC50,"YKG-1; Homo sapiens, YKG-1",0.298 µM
same,IC50,"A704; Homo sapiens, A704",> 2 µM
same,IC50,"CAL-12T; Homo sapiens, CAL-12T",> 2 µM
same,IC50,"NCI-H1648; Homo sapiens, NCI-H1648",> 2 µM
same,IC50,"NCI-H2170; Homo sapiens, NCI-H2170",> 2 µM
same,IC50,"COLO-680N; Homo sapiens, COLO-680N",> 2 µM
same,IC50,"G-401; Homo sapiens, G-401",0.758 µM
same,IC50,"SW948; Homo sapiens, SW948",> 2 µM
same,IC50,NKM-1,1.06 µM
same,IC50,"HCC1187; Homo sapiens, HCC1187",> 2 µM
same,IC50,"NCI-H596; Homo sapiens, NCI-H596",> 2 µM
same,IC50,"OCUB-M; Homo sapiens, OCUB-M",> 2 µM
same,IC50,"T98G; Homo sapiens, T98G",1.72 µM
same,IC50,NCI-H1770,> 2 µM
same,IC50,"DoTc2-4510; Homo sapiens, DoTc2-4510",1.6 µM
same,IC50,"AU565; Homo sapiens, AU565",> 2 µM
same,IC50,"PFSK-1; Homo sapiens, PFSK-1",> 2 µM
same,IC50,"A673; Homo sapiens, A673",0.224 µM
same,IC50,"RT-112; Homo sapiens, RT-112",0.502 µM
same,IC50,"YAPC; Homo sapiens, YAPC",> 2 µM
same,IC50,"ES1; Homo sapiens, ES1",0.013 µM
same,IC50,"NCI-H2452; Homo sapiens, NCI-H2452",> 2 µM
same,IC50,"MKN-7; Homo sapiens, MKN-7",> 2 µM
same,IC50,"MG-63; Homo sapiens, MG-63",> 2 µM
same,IC50,KY821,> 2 µM
same,IC50,"ES8; Homo sapiens, ES8",0.124 µM
same,IC50,"NCI-H2052; Homo sapiens, NCI-H2052",> 2 µM
same,IC50,"HGC-27; Homo sapiens, HGC-27",0.455 µM
same,IC50,"A498; Homo sapiens, A498",> 2 µM
same,IC50,NCI-H510A,0.0683 µM
same,IC50,LU-134-A,> 2 µM
same,IC50,"HCE-4; Homo sapiens, HCE-4",0.277 µM
same,IC50,"769-P; Homo sapiens, 769-P",0.228 µM
same,IC50,RS4-11,0.381 µM
same,IC50,"NCI-H810; Homo sapiens, NCI-H810",> 2 µM
same,IC50,A2058,0.687 µM
same,IC50,"Calu-6; Homo sapiens, Calu-6",> 2 µM
same,IC50,J-RT3-T3-5,0.0684 µM
same,IC50,"LU-99A; Homo sapiens, LU-99A",0.266 µM
